The values below come from patent US20080306044A1, “SPIROBENZOAZEPANES AS VASOPRESSIN ANTAGONISTS” (priority 2007, published 2008).

One assay addresses human V2 receptor (Homo sapiens, UniProt P30518). Kind of assay: V2 vasopressin receptor functional activity (cAMP accumulation). The following applies: V2-HEK cells; block of vasopressin-stimulated cAMP accumulation; read-out: V2 (functional) IC50. Details: expressed in transfected cells; host or cells: HEK-293. The format is cell-based. The procedure:
The V2 receptor is also a G-protein coupled receptor which when activated induces an increase in cAMP turnover. Antagonism against the V2 receptor is determined by measuring cAMP accumulation in transfected HEK-293 cells expressing the human V-2 receptor (V2-HEK cells). Compounds are tested for their ability to block the stimulatory effects of vasopressin on cAMP accumulation. The cell content of cAMP is measured by radioimmunoassay using NEN flashplates.
In general terms: Cyclic AMP is a second messenger, typically raised through Gs and lowered through Gi signalling.

The next assay deals with T1, human V1a receptor (Homo sapiens, UniProt P37288).
T1 construct: expressed in transfected cells
T1 sequence (P37288 whole entry): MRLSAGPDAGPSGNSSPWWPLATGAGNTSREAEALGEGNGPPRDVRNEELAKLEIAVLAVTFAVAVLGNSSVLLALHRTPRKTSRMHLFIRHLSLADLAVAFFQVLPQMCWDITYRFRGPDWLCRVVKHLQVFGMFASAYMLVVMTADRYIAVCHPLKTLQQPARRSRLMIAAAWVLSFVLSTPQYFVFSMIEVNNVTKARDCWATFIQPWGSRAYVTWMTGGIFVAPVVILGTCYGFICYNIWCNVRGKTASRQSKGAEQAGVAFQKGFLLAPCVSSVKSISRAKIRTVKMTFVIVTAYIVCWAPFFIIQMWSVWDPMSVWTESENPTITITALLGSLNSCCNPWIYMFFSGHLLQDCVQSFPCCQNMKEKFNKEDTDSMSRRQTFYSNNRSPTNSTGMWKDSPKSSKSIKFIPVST
Briefly: cell-based. The procedure: The V1a receptor is a G-protein coupled receptor, which upon activation triggers an increase in intracellular calcium mobilization. To evaluate compounds for their functional V1a receptor activity, HEK-293 cells were transfected with the human V1a receptor (V1a-HEK cells). HEK-293 cells were grown in DMEM (Dulbecco's modified Eagle Media) supplemented with 10% FBS and glutamine. HEK-cells were passed biweekly by trypsinization and seeded into 96 well plates at 33,000 cells per well. HEK-293 cells were transfected with human V1a receptor DNA using DMRIE-C reagent from Life Technologies (Carlsbad, Calif.). Stable lines were generated by selecting cells grown in culture media containing geneticin. After growing in Packard Clear-View black 96 well plates for 4-6 days, V1a-HEK cells were loaded with the calcium-sensitive fluorescence dye, FLUO-3 AM. Changes in intracellular calcium mobilization were measured by quantitating intracellular fluorescence using FLIPR (Fluorometric Imaging Plate Reader; Molecular Devices, Sunnyvale, Calif.). Test compounds were first added to the cells and the resulting changes in fluorescence measured to detect receptor agonistic activity. Five minutes later the cells were challenged with vasopressin to test compounds for their antagonistic activity. Receptor antagonists inhibit the ability of vasopressin to stimulate increases in intracellular fluorescence.

Setting [1] is: V1a-HEK cells, inhibition of vasopressin-stimulated intracellular calcium mobilization, read-out: V1 (functional) IC50.
[2] abbreviates: V1 (functional) IC50, V1a-HEK cells, inhibition of vasopressin-stimulated intracellular calcium mobilization.

Where two headings read alike, the source gives them in different places.

human V2 receptor, sequence (P30518 whole entry): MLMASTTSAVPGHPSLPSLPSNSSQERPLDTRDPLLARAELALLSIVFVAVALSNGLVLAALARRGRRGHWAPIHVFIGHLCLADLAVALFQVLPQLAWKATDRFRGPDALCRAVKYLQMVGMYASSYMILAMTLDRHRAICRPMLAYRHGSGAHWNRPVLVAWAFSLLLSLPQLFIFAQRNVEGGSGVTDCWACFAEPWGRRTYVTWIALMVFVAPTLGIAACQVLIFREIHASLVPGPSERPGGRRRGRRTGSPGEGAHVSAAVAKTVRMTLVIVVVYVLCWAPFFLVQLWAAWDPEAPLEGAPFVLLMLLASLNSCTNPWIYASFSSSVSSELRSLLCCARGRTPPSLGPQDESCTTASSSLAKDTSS

As for `COc1cc(C(=O)N2CC[C@]3(C=C(C(=O)NS(=O)(=O)N(C)C)CC3)Cc3ccccc32)ccc1NC(=O)c1cc(F)ccc1Cl` [Cpd 36, (R)-N-[3-methoxy-4-(2-chloro-5-fluoro-phenylcarbonyl)amino-phenylcarbonyl]-3-[(dimethylaminosulfonyl)aminocarbonyl]-spiro[cyclopent-2-ene-1,4′-benzo[b]azepane]], the results for the IC50 at human V2 receptor and against human V1a receptor were 170 nM and 210 nM, respectively. In the case of `COc1cc(C(=O)N2CC[C@@]3(CCC(=CC(=O)NCCN4CCOCC4)C3)Cc3ccccc32)ccc1NC(=O)c1cc(F)ccc1Cl` [Cpd 28, (R)—N-[3-methoxy-4-(2-chloro-5-fluoro-phenylcarbonyl)amino-phenylcarbonyl]-3-(2-morpholin-4-yl-ethyl)aminocarbonylmethylene-spiro[cyclopentane-1,4′-benzo[b]azepane]], the IC50 (in general, the midpoint of a concentration-inhibition curve) is 200 nM on human V2 receptor and 220 nM on human V1a receptor. Take `COc1cc(C(=O)N2CC[C@@]3(CCC(NCCN(C)C)C3)Cc3ccccc32)ccc1NC(=O)c1cc(F)ccc1Cl` (stereo partly drawn) [Cpd 21, (1R)—N-[3-methoxy-4-(2-chloro-5-fluoro-phenylcarbonyl)amino-phenylcarbonyl]-3-(2-dimethylamino-ethyl)amino-spiro[cyclopentane-1,4′-benzo[b]azepane]]: the results for the IC50 on human V2 receptor and at human V1a receptor were 1100 nM and 170 nM, respectively. Regarding `COc1cc(C(=O)N2CC[C@]3(C=C(c4ncc[nH]4)CC3)Cc3ccccc32)ccc1NC(=O)c1cc(F)ccc1Cl` [Cpd 14, (R)-N-[3-methoxy-4-(2-chloro-5-fluoro-phenylcarbonyl)amino-phenylcarbonyl]-3-(1H-imidazol-2-yl)-spiro[cyclopent-2-ene-1,4′-benzo[b]azepane]], the IC50 was determined as 730 nM on human V2 receptor and 95 nM at human V1a receptor (setting [1]). Turning to `COc1cc(C(=O)N2CC[C@@]3(CCC(=CC(=O)O)C3)Cc3ccccc32)ccc1NC(=O)c1cc(F)ccc1Cl` [Cpd 16, (R)-N-[3-methoxy-4-(2-chloro-5-fluoro-phenylcarbonyl)amino-phenylcarbonyl]-3-carboxymethylene-spiro[cyclopentane-1,4′-benzo[b]azepane]], the IC50 on human V2 receptor was 74 nM; against human V1a receptor it was 30 nM. Turning to `COc1cc(C(=O)N2CC[C@]3(C=C(c4nnn[nH]4)CC3)Cc3ccccc32)ccc1NC(=O)c1cc(F)ccc1Cl` [Cpd 11, (R)-N-[3-methoxy-4-(2-chloro-5-fluoro-phenylcarbonyl)amino-phenylcarbonyl]-3-tetrazol-5-yl-spiro[cyclopent-2-ene-1,4′-benzo[b]azepane]], the IC50 at human V2 receptor was 40 nM; on human V1a receptor (setting [1]), 63 nM. Consider `COc1cc(C(=O)N2CC[C@]3(C=C(C4=NCCN4)CC3)Cc3ccccc32)ccc1NC(=O)c1cc(F)ccc1Cl` [Cpd 12, (R)-N-[3-methoxy-4-(2-chloro-5-fluoro-phenylcarbonyl)amino-phenylcarbonyl]-3-(4,5-dihydro-1H-imidazol-2-yl)-spiro[cyclopent-2-ene-1,4′-benzo[b]azepane]], for which the IC50 at human V2 receptor was determined as 1100 nM; on human V1a receptor (setting [1]) it was 320 nM. Turning to `COc1cc(C(=O)N2CC[C@@]3(CCC(=CC(=O)NCCN(C)C)C3)Cc3ccccc32)ccc1NC(=O)c1cc(F)ccc1Cl` [Cpd 31, (R)-N-[3-methoxy-4-(2-chloro-5-fluoro-phenylcarbonyl)amino-phenylcarbonyl]-3-(2-dimethylamino-ethyl)aminocarbonylmethylene-spiro[cyclopentane-1,4′-benzo[b]azepane]], the results for the IC50 on human V2 receptor and on human V1a receptor were 140 nM and 150 nM, respectively. For `COc1cc(C(=O)N2CC[C@@]3(CC[C@@H](NS(N)(=O)=O)C3)Cc3ccccc32)ccc1NC(=O)c1cc(F)ccc1Cl` [Cpd 35, (1R,3R)-3-aminosulfonylamino-N-[3-methoxy-4-(2-chloro-5-fluoro-phenylcarbonyl)amino-phenylcarbonyl]-spiro[cyclopentane-1,4′-benzo[b]azepane]], the figures for the IC50 on human V2 receptor and at human V1a receptor (setting [2]) were 44 nM and 78 nM, respectively. In the case of `COc1cc(C(=O)N2CC[C@@]3(CCC(=NOCC(=O)O)C3)Cc3ccccc32)ccc1NC(=O)c1cc(F)ccc1Cl` [Cpd 24, (R)—N-[3-methoxy-4-(2-chloro-5-fluoro-phenylcarbonyl)amino-phenylcarbonyl]-3-carboxymethoxyimino-spiro[cyclopentane-1,4′-benzo[b]azepane]], the values for the IC50 on human V2 receptor and against human V1a receptor were 220 nM and 100 nM, respectively. Taken in the same sequence, the figures for `COc1cc(C(=O)N2CC[C@@]3(CCC(N4CCCC4)C3)Cc3ccccc32)ccc1NC(=O)c1cc(F)ccc1Cl` (stereo partly drawn) [Cpd 25, (1R)-N-[3-methoxy-4-(2-chloro-5-fluoro-phenylcarbonyl)amino-phenylcarbonyl]-3-(1H-pyrrolidin-1-yl)-spiro[cyclopentane-1,4′-benzo[b]azepane]] were 1000 nM and 810 nM. Turning to `COc1cc(C(=O)N2CC[C@@]3(CCC(=NN(C)C)C3)Cc3ccccc32)ccc1NC(=O)c1cc(F)ccc1Cl` [Cpd 27, (R)—N-[3-methoxy-4-(2-chloro-5-fluoro-phenylcarbonyl)amino-phenylcarbonyl]-3-dimethylaminoimino-spiro[cyclopentane-1,4′-benzo[b]azepane]], the IC50 worked out at 390 nM on human V2 receptor and 130 nM on human V1a receptor (setting [2]). Take `COc1cc(C(=O)N2CC[C@@]3(CC[C@H](NS(N)(=O)=O)C3)Cc3ccccc32)ccc1NC(=O)c1cc(F)ccc1Cl` [Cpd 34, (1R,3S)-3-aminosulfonylamino-N-[3-methoxy-4-(2-chloro-5-fluoro-phenylcarbonyl)amino-phenylcarbonyl]-spiro[cyclopentane-1,4′-benzo[b]azepane]]: the IC50 at human V2 receptor and at human V1a receptor (setting [2]) was 250 nM in each case.

As for `COC(=O)C=C1CC[C@@]2(CCN(C(=O)c3ccc(NC(=O)c4cc(F)ccc4Cl)c(OC)c3)c3ccccc3C2)C1` [Cpd 26, (R)—N-[3-methoxy-4-(2-chloro-5-fluoro-phenylcarbonyl)amino-phenylcarbonyl]-3-methoxycarbonylmethylene-spiro[cyclopentane-1,4′-benzo[b]azepane]], the IC50 at human V2 receptor is 70 nM; on human V1a receptor (setting [2]), 4000 nM. On to `NS(=O)(=O)NC(=O)C1=C[C@@]2(CC1)CCN(C(=O)c1ccc(NC(=O)c3cc(F)ccc3Cl)cc1)c1ccccc1C2` [Cpd 52, (R)-3-aminosulfonylaminocarbonyl-N-[4-(2-chloro-5-fluoro-phenylcarbonyl)amino-phenylcarbonyl]-spiro[cyclopent-2-ene-1,4′-benzo[b]azepane]], for which the figures for the IC50 on human V2 receptor and at human V1a receptor were 35 nM and 77 nM, respectively. In the case of `COc1cc(C(=O)N2CC[C@@]3(CCC(N(C)C)C3)Cc3ccccc32)ccc1NC(=O)c1cc(F)ccc1Cl` (stereo partly drawn) [Cpd 20, (1R)—N-[3-methoxy-4-(2-chloro-5-fluoro-phenylcarbonyl)amino-phenylcarbonyl]-3-dimethylamino-spiro[cyclopentane-1,4′-benzo[b]azepane]], the IC50 at human V1a receptor (setting [1]) was determined as 490 nM. Take `COc1cc(C(=O)N2CC[C@@]3(CCC(N4CCN(C)CC4)C3)Cc3ccccc32)ccc1NC(=O)c1cc(F)ccc1Cl` (stereo partly drawn) [Cpd 23, (1R)—N-[3-methoxy-4-(2-chloro-5-fluoro-phenylcarbonyl)amino-phenylcarbonyl]-3-(4-methyl-piperazin-1-yl)-spiro[cyclopentane-1,4′-benzo[b]azepane]]: the IC50 on human V1a receptor (setting [1]) amounted to 710 nM.
